From ChEMBL document CHEMBL1770054, “Enediol mimics as inhibitors of the D-arabinose 5-phosphate isomerase (KdsD) from Francisella tularensis” (Bioorg Med Chem Lett, 2011)
Where “and” joins values, the source holds several entries; their conditions need not be identical. Equal entries are not always repeated.

How the values were obtained:
[1] = target: T1, Arabinose 5-phosphate isomerase KdsD (Francisella tularensis subsp. tularensis (strain SCHU S4 / Schu 4), UniProt Q5NGP7)
T1 sequence (Q5NGP7 whole entry): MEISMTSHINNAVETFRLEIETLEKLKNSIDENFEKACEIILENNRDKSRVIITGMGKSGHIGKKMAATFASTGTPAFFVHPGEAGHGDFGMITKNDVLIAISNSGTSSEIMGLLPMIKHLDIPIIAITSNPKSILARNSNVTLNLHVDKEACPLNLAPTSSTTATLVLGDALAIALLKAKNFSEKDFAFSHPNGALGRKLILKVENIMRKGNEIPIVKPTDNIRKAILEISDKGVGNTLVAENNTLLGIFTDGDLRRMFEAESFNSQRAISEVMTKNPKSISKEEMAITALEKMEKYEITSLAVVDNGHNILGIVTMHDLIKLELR

[2] = target: T2, Ribose-5-phosphate isomerase B (Mycobacterium tuberculosis, UniProt P9WKD7); test: Inhibition of Mycobacterium tuberculosis rpiB
T2 sequence (P9WKD7 whole entry): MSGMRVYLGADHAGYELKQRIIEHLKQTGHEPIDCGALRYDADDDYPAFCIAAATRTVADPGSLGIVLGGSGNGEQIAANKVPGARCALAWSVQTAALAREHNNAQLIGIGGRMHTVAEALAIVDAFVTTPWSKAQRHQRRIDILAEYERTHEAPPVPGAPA

[3] = Inhibition of Escherichia coli arabinose phosphate isomerase
[4] = target: Triosephosphate isomerase (Homo sapiens, UniProt P60174); test: Inhibition of Triosephosphate isomerase
Chain of Triosephosphate isomerase (P60174 whole entry): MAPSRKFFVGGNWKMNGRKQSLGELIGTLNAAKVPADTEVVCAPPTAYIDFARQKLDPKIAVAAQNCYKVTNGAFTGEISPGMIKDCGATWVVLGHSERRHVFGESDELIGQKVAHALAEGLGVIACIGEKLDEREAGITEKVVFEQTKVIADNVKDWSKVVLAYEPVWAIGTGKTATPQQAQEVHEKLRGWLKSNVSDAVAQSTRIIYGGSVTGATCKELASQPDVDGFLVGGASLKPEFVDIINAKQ

[5] = target: Glucose-6-phosphate isomerase (Oryctolagus cuniculus, UniProt Q9N1E2); test: Inhibition of rabbit cytosolic phosphoglucose isomerase
[6] = tested on: Trypanosoma brucei; test: Antiparasitic activity against Trypanosoma brucei infected in rat L6 cells; format: functional
[7] = tested on: L6; test: Cytotoxicity against rat L6 cells; format: cell-based
[8] = Inhibition of xylose isomerase

O=C(NO)[C@H](O)[C@H](O)COP(=O)(O)O
IC50 [1]: 35 µM | Ki [2]: 400 µM and 57 µM

O=C(O)[C@H](O)[C@H](O)COP(=O)(O)O
IC50 [3]: 220 µM

NC(=O)[C@H](O)[C@H](O)COP(=O)(O)O
IC50 [1]: 10 µM | Ki [2]: > 30000 µM

CC1(C)O[C@H](COP(=O)(O)O)[C@H](C(=O)NO)O1
IC50 [1]: 3000 µM

O=C(COP(=O)(O)O)NO [PHOSPHOGLYCOLOHYDROXAMATE]
Ki [4]: 4 µM

O=C(NO)[C@@H](O)[C@H](O)[C@H](O)COP(=O)(O)O
Ki [5]: 0.1 µM

CC(=O)O[C@H](COP(=O)(O)O)[C@@H](OC(C)=O)C(=O)NO
Activity [6]: 229 µM | IC50 [1]: 7 µM | Activity [7]: 229 µM

O=C(NO)[C@H](O)[C@H](O)CO
Ki [8]: 0.1 µM
